Here are results for 14 compounds from patent publication US9120749B2, “Quinoline derivatives and MELK inhibitors containing the same” (ONCOTHERAPY SCIENCE, INC., priority 2010, dated 2015).

Structures can show the parent of a compound that is named as a salt. Where two headings read alike, the source gives them in different places.

One assay has as its target MELK (Homo sapiens, UniProt Q14680). As to the kind of experiment: Kinase assay: MELK activity, phosphorylation of FITC-labeled histone H3 peptide measured by IMAP fluorescence polarization. It counts as biochemical. The note with it: read-out: IC50 (μM) (kinase assay). An outline of the steps:
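Fluorescence polarization was measured 0.5 h (room temperature) after quenching with threefold volume of progressive binding solution. Test compounds from 12.5 mM DMSO stocks were assayed at 1% DMSO.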

A further assay concerns T47D cells. As to the kind of experiment: Cell-based assay: anti-proliferative activity, Cell Counting Kit-8, 72 hours (T47D). The note with it: Homo sapiens, T47D, 72 h. An outline of the steps:
(§1)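 Proliferation read with Cell Counting Kit-8 after 72 hours of inhibitor treatment, from seeding of 2,000–3,000 cells/well. Lines: T47D, A549, BT-549; HT-1197, lacking MELK by western blot, served as negative control. IC50 derived.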

The next assay deals with A549 cells. In words: Cell-based assay: anti-proliferative activity, Cell Counting Kit-8, 72 hours (A549). The note with it: Homo sapiens, A549, 72 h, 72 hours. An outline of the steps:
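Cell Counting Kit-8 read-out of A549 growth after 72 hours of inhibitor exposure, cells plated in 96-well format. Values reported as IC50.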

The next assay deals with HT-1197 cells. As to the kind of experiment: Cell-based assay: anti-proliferative activity, Cell Counting Kit-8, 72 hours (HT-1197, negative control without MELK expression). The note with it: Homo sapiens, HT1197, 72 h, HT1197 cells (negative control, no MELK expression), 72 hours. An outline of the steps:
as §1

The next assay concerns 22Rv1 cells. In words: Cell-based assay: anti-proliferative activity, Cell Counting Kit-8, 72 hours (22Rv1). The note with it: Homo sapiens, 22Rv1, 72 h.
The next assay relates to DU4475 cells. In words: Cell-based assay: anti-proliferative activity, Cell Counting Kit-8, 72 hours (DU4475). The note with it: Homo sapiens, DU-4475, 72 h.
The mark [1] stands for this setting: MELK kinase assay, IMAP fluorescence polarization, 50 micro-M ATP.

Sequence of MELK (Q14680 whole entry, looked up): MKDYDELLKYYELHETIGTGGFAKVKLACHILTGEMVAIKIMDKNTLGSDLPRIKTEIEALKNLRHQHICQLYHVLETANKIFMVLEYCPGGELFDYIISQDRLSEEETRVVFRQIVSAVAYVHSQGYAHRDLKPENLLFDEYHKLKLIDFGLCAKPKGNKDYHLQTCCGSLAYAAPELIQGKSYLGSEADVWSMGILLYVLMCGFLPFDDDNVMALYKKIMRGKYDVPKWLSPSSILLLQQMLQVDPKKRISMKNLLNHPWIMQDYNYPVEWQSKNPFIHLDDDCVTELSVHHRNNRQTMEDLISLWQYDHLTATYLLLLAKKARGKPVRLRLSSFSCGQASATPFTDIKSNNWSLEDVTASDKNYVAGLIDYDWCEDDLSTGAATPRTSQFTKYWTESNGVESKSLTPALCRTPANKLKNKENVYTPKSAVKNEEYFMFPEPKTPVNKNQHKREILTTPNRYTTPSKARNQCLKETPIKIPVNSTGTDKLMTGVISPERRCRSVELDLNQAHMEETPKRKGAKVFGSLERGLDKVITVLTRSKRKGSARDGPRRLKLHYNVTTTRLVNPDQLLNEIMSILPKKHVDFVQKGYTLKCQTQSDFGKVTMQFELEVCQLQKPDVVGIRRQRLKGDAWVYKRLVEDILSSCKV

As for `CN(C)CCN1CCC(Nc2c(C(=O)C3CC3)cnc3ccc(-c4cc(Cl)c(O)c(Cl)c4)cc23)CC1` [Example 819, cyclopropyl(6-(3,5-dichloro-4-hydroxyphenyl)-4-(1-(2-(dimethylamino)ethyl)piperidin-4-ylamino)quinolin-3-yl)methanone], the half-inhibitory concentration (IC50) at MELK (setting [1]) is 0.0024 µM; in the assay on T47D cells, 0.38 µM; in the assay on A549 cells it was 0.44 µM; with HT-1197 cells, 3.3 µM; in the assay on 22Rv1 cells, 0.64 µM; in the assay on DU4475 cells it was 0.17 µM.

Take `CC(=O)c1cnc2ccc(-c3cc(Cl)c(O)c(Cl)c3)cc2c1N[C@H]1C[C@H](CN(C)C)C1` [Example 784, 1-(6-(3,5-dichloro-4-hydroxyphenyl)-4-((1r,3r)-3-((dimethylamino)methyl)cyclobutylamino)quinolin-3-yl)ethanone]: the IC50 was 0.0031 µM at MELK; 0.6 µM in the assay with T47D cells; 0.74 µM in the assay on A549 cells; 3.2 µM in the assay on HT-1197 cells; 0.95 µM in the assay on 22Rv1 cells; 0.2 µM in the assay with DU4475 cells.

For `CC(=O)c1cnc2ccc(-c3cc(Cl)c(O)c(Cl)c3)cc2c1N[C@H]1CCC[C@@H](CN(C)C)C1` [Example 827, 1-(6-(3,5-dichloro-4-hydroxyphenyl)-4-((1S,3R)-3-((dimethylamino)methyl)cyclohexylamino)quinolin-3-yl)ethanone hydrochloride], the half-maximal inhibitory concentration (IC50) on MELK (setting [1]) came to 0.0033 µM; with T47D cells, 0.49 µM; in the assay with A549 cells it was 0.51 µM; in the assay on HT-1197 cells, 5.9 µM; in the assay with 22Rv1 cells it was 0.43 µM; in the assay with DU4475 cells, 0.2 µM.

Consider `CC(=O)c1cnc2ccc(-c3cc(F)c(O)c(Cl)c3)cc2c1NC1CCCN(CCN(C)C)C1` (stereo not drawn) [Example 851, 1-(6-(3-chloro-5-fluoro-4-hydroxyphenyl)-4-(1-(2-(dimethylamino)ethyl)piperidin-3-ylamino)quinolin-3-yl)ethanone], for which the half-maximal inhibitory concentration (IC50) at MELK (setting [1]) turned out to be 0.04 µM; in the assay on T47D cells, 1.6 µM; in the assay on A549 cells it was 1.6 µM; with HT-1197 cells, 6 µM; with 22Rv1 cells, 1.5 µM; in the assay with DU4475 cells, 0.65 µM.

On to `CCN(CC)C[C@H]1CC[C@H](Nc2c(C(C)=O)cnc3ccc(-c4cc(Cl)c(O)c(OC)c4)cc23)CC1` [Example 791, 1-(6-(3-chloro-4-hydroxy-5-methoxyphenyl)-4-(1R,4R)-4-((diethylamino)methyl)cyclohexylamino)quinolin-3-yl)ethanone hydrochloride], for which the IC50 at MELK stood at 0.0031 µM; with T47D cells, 0.58 µM; in the assay with A549 cells it was 0.27 µM; with HT-1197 cells, 9.3 µM; with 22Rv1 cells it was 0.49 µM; with DU4475 cells, 0.43 µM.

Consider `CCC(=O)c1cnc2ccc(-c3cc(F)c(O)c(Cl)c3)cc2c1N[C@H]1CC[C@H](CN2CCCC2)CC1` [Example 846], for which the IC50 at MELK (setting [1]) came out at 0.0023 µM; in the assay with T47D cells it was 0.096 µM; in the assay on A549 cells, 0.13 µM; in the assay on HT-1197 cells, 0.71 µM; with 22Rv1 cells, 0.16 µM; in the assay with DU4475 cells, 0.071 µM.

Turning to `CC(=O)c1cnc2ccc(-c3cc(Cl)c(O)c(Cl)c3)cc2c1N[C@H]1CC[C@H](CN2CCNCC2)CC1` [Example 772, 1-(6-(3,5-dichloro-4-hydroxyphenyl)-4-((trans-4-(piperazin-1-ylmethyl)cyclohexyl)amino)quinolin-3-yl)ethanone dihydrochloride], the concentration for half-maximal inhibition (IC50) at MELK amounted to 0.0021 µM; in the assay with T47D cells it was 0.058 µM; in the assay on A549 cells it was 0.26 µM; in the assay with HT-1197 cells, 3.2 µM; with 22Rv1 cells it was 0.14 µM; in the assay on DU4475 cells it was 0.076 µM.

As for `CCC(=O)c1cnc2ccc(-c3cc(Cl)c(O)c(Cl)c3)cc2c1Nc1ccc(N2CCCC(N)C2)nc1` (stereo not drawn) [Example 824, 1-(4-(6-(3-aminopiperidin-1-yl)pyridin-3-ylamino)-6-(3,5-dichloro-4-hydroxyphenyl)quinolin-3-yl)propan-1-one], the IC50 at MELK (setting [1]) is 0.0016 µM; with T47D cells, 0.021 µM; in the assay on A549 cells, 0.036 µM; in the assay on HT-1197 cells, 0.28 µM; with 22Rv1 cells it was 0.026 µM; in the assay with DU4475 cells, 0.026 µM.

For the compound `CC(=O)c1cnc2ccc(-c3cc(F)c(O)c(Cl)c3)cc2c1N[C@H]1CC[C@H](CN2CCNCC2)CC1` [Example 783, 1-(6-(3-chloro-5-fluoro-4-hydroxyphenyl)-4-((trans-4-(piperazin-1-ylmethyl)cyclohexyl)amino)quinolin-3-yl)ethanone dihydrochloride], the IC50 is 0.0088 µM on MELK; 0.027 µM in the assay on T47D cells; 0.2 µM in the assay on A549 cells; 4.2 µM in the assay on HT-1197 cells; 0.087 µM in the assay on 22Rv1 cells; 0.057 µM with DU4475 cells.

Regarding `COc1cc(-c2ccc3ncc(C(C)=O)c(Nc4ccc(N5CCC(N)C5)nc4)c3c2)cc(Cl)c1O` (stereo not drawn) [Example 774, 1-(4-(6-(3-aminopyrrolidin-1-yl)pyridin-3-ylamino)-6-(3-chloro-4-hydroxy-5-methoxyphenyl)quinolin-3-yl)ethanone], the IC50 on MELK was determined as 0.0019 µM; with T47D cells, 0.034 µM; with A549 cells it was 0.045 µM; with HT-1197 cells, 0.71 µM; with 22Rv1 cells it was 0.082 µM; with DU4475 cells it was 0.056 µM.

For `CNC1CCN(c2ccc(Nc3c(C(=O)C4CC4)cnc4ccc(-c5cc(Cl)c(O)c(Cl)c5)cc34)cn2)C1` (stereo not drawn) [Example 804, cyclopropyl(6-(3,5-dichloro-4-hydroxyphenyl)-4-((6-(3-(methylamino)pyrrolidin-1-yl)pyridin-3-yl)amino)quinolin-3-yl)methanone trihydrochloride], the half-inhibitory concentration (IC50) at MELK came out at 0.002 µM; in the assay with T47D cells, 0.088 µM; in the assay on A549 cells, 0.17 µM; with HT-1197 cells, 1.4 µM; with 22Rv1 cells it was 0.1 µM; in the assay with DU4475 cells it was 0.042 µM.

Turning to `CCC(=O)c1cnc2ccc(-c3cc(F)c(O)c(Cl)c3)cc2c1Nc1ccc(N2CCC(N(C)C)C2)nc1` (stereo not drawn) [Example 860, 1-(6-(3-chloro-5-fluoro-4-hydroxyphenyl)-4-((6-(3-(dimethylamino)pyrrolidin-1-yl)pyridin-3-yl)amino)quinolin-3-yl)propan-1-one], the concentration for half-maximal inhibition (IC50) at MELK (setting [1]) was found to be 0.0062 µM; in the assay with T47D cells it was 0.14 µM; with A549 cells, 0.29 µM; in the assay with HT-1197 cells, 3.6 µM; in the assay with 22Rv1 cells, 0.45 µM; in the assay with DU4475 cells it was 0.24 µM.

With `O=C(c1cnc2ccc(-c3cc(F)c(O)c(F)c3)cc2c1Nc1ccc(CN2CCCC2)nc1)C1CC1` [Example 795, cyclopropyl(6-(3,5-difluoro-4-hydroxyphenyl)-4-(6-(pyrrolidin-1-ylmethyl)pyridin-3-ylamino)quinolin-3-yl)methanone], the IC50 on MELK was 0.035 µM; in the assay with T47D cells it was 0.51 µM; in the assay with A549 cells, 0.34 µM; in the assay with HT-1197 cells, 3.5 µM; in the assay with 22Rv1 cells it was 0.83 µM; in the assay with DU4475 cells it was 0.31 µM.

For the compound `CC(=O)c1cnc2ccc(-c3cc(Cl)c(O)c(Cl)c3)cc2c1NC1CCN(CCN(C)C)CC1` [Example 823, 1-(6-(3,5-dichloro-4-hydroxyphenyl)-4-(1-(2-(dimethylamino)ethyl)piperidin-4-ylamino)quinolin-3-yl)ethanone], the IC50 is 0.0027 µM on MELK (setting [1]); 0.21 µM in the assay on T47D cells; 0.45 µM with A549 cells; 2.6 µM in the assay with HT-1197 cells; 0.32 µM in the assay with 22Rv1 cells; 0.16 µM in the assay on DU4475 cells.
